According to patent publication US20240415914A1, “Water Dispersible Cannabinoid Compositions” (priority 2021, published 2024):
Like-named read-outs stand apart in the source and are kept apart here.

Tests used:
[1] = assay type: physicochemical; settings: for Stability in Powder Concentrate (content by LCMSMS): stored at room temperature (21-25° C.)
Protocol: At each time period, 0.05 g of powder was dissolved in 10 ml-15 of ethanol, diluted to fall within the analytical range, and injected into the LCMSMS for analysis.

[2] = Stability of cannabinoid and Vitamin E components of Beverage 2 (AB Red) stored at 8° C. and 21-25° C., LCMSMS over 570 days; settings: for Chemical stability over the entire period (result in words): AB Red
Protocol: The LCMSMS was calibrated for 0-50 ng/ml cannabinoids with the same resin material used in the preparation of the concentrates. At each time period, 100 μml of beverage was diluted with 10 ml of methanol and injected into the LCMSMS for analysis.

CCCCCc1cc(O)c2c(c1)OC(C)(C)[C@@H]1CCC(C)=C[C@@H]21 [D9 THC, delta-9-tetrahydrocannabinol, reference compound]
2.54 mg/g powder: Stability in Powder Concentrate (content by LCMSMS) ([1]; day 16) | Stability in Powder Concentrate (content by LCMSMS) ([1]; day 17) | Stability in Powder Concentrate (content by LCMSMS) ([1]; day 210)
12.1 µg/mL: Stability of Cannabinoids in AB Red ([2]; 21-25° C., 330 days) | Stability of Cannabinoids in AB Red ([2]; 21-25° C., 390 days)
12.0 µg/mL: Stability of Cannabinoids in AB Red ([2]; 8° C., 510 days)
12.5 µg/mL: Stability of Cannabinoids in AB Red ([2]; 8° C., 60 days) | Stability of Cannabinoids in AB Red ([2]; 21-25° C., 10 days) | Stability of Cannabinoids in AB Red ([2]; 21-25° C., 24 days) | Stability of Cannabinoids in AB Red ([2]; 21-25° C., 25 days) | Stability of Cannabinoids in AB Red ([2]; 21-25° C., 240 days) | Stability of Cannabinoids in AB Red ([2]; 21-25° C., 270 days)
2.55 mg/g powder: Stability in Powder Concentrate (content by LCMSMS) ([1]; day 0) | Stability in Powder Concentrate (content by LCMSMS) ([1]; day 1) | Stability in Powder Concentrate (content by LCMSMS) ([1]; day 18) | Stability in Powder Concentrate (content by LCMSMS) ([1]; day 25)
2.48 mg/g powder: Stability in Powder Concentrate (content by LCMSMS) ([1]; day 390)
2.53 mg/g powder: Stability in Powder Concentrate (content by LCMSMS) ([1]; day 240) | Stability in Powder Concentrate (content by LCMSMS) ([1]; day 420)
2.52 mg/g powder: Stability in Powder Concentrate (content by LCMSMS) ([1]; day 26)
2.63 mg/g powder: Stability in Powder Concentrate (content by LCMSMS) ([1]; day 3)
2.61 mg/g powder: Stability in Powder Concentrate (content by LCMSMS) ([1]; day 150) | Stability in Powder Concentrate (content by LCMSMS) ([1]; day 450)
2.58 mg/g powder: Stability in Powder Concentrate (content by LCMSMS) ([1]; day 11) | Stability in Powder Concentrate (content by LCMSMS) ([1]; day 360)
12.6 µg/mL: Stability of Cannabinoids in AB Red ([2]; 8° C., 8 days) | Stability of Cannabinoids in AB Red ([2]; 8° C., 17 days) | Stability of Cannabinoids in AB Red ([2]; 8° C., 180 days) | Stability of Cannabinoids in AB Red ([2]; 8° C., 270 days) | Stability of Cannabinoids in AB Red ([2]; 21-25° C., 3 days)
high degree of stability: Chemical stability over the entire period (result in words) ([2]; stored at 8° C., 570 days) | Chemical stability over the entire period (result in words) ([2]; stored at 21-25° C., 570 days)
2.51 mg/g powder: Stability in Powder Concentrate (content by LCMSMS) ([1]; day 19)
11.9 µg/mL: Stability of Cannabinoids in AB Red ([2]; 8° C., 540 days)
12.7 µg/mL: Stability of Cannabinoids in AB Red ([2]; 8° C., 3 days) | Stability of Cannabinoids in AB Red ([2]; 8° C., 9 days) | Stability of Cannabinoids in AB Red ([2]; 8° C., 16 days) | Stability of Cannabinoids in AB Red ([2]; 8° C., 19 days) | Stability of Cannabinoids in AB Red ([2]; 8° C., 22 days) | Stability of Cannabinoids in AB Red ([2]; 8° C., 26 days) | Stability of Cannabinoids in AB Red ([2]; 8° C., 29 days) | Stability of Cannabinoids in AB Red ([2]; 8° C., 330 days) | Stability of Cannabinoids in AB Red ([2]; 21-25° C., 8 days) | Stability of Cannabinoids in AB Red ([2]; 21-25° C., 15 days) | Stability of Cannabinoids in AB Red ([2]; 21-25° C., 29 days)
2.66 mg/g powder: Stability in Powder Concentrate (content by LCMSMS) ([1]; day 5) | Stability in Powder Concentrate (content by LCMSMS) ([1]; day 30) | Stability in Powder Concentrate (content by LCMSMS) ([1]; day 60) | Stability in Powder Concentrate (content by LCMSMS) ([1]; day 120)
2.64 mg/g powder: Stability in Powder Concentrate (content by LCMSMS) ([1]; day 510) | Stability in Powder Concentrate (content by LCMSMS) ([1]; day 570)
13.0 µg/mL: Stability of Cannabinoids in AB Red ([2]; 8° C., 1 days) | Stability of Cannabinoids in AB Red ([2]; 8° C., 2 days) | Stability of Cannabinoids in AB Red ([2]; 8° C., 5 days) | Stability of Cannabinoids in AB Red ([2]; 8° C., 90 days) | Stability of Cannabinoids in AB Red ([2]; 21-25° C., 1 days) | Stability of Cannabinoids in AB Red ([2]; 21-25° C., 2 days) | Stability of Cannabinoids in AB Red ([2]; 21-25° C., 12 days)
11.8 µg/mL: Stability of Cannabinoids in AB Red ([2]; 8° C., 570 days) | Stability of Cannabinoids in AB Red ([2]; 21-25° C., 480 days) | Stability of Cannabinoids in AB Red ([2]; 21-25° C., 570 days)
12.9 µg/mL: Stability of Cannabinoids in AB Red ([2]; 8° C., 0 days) | Stability of Cannabinoids in AB Red ([2]; 8° C., 12 days) | Stability of Cannabinoids in AB Red ([2]; 8° C., 15 days) | Stability of Cannabinoids in AB Red ([2]; 8° C., 23 days) | Stability of Cannabinoids in AB Red ([2]; 8° C., 24 days) | Stability of Cannabinoids in AB Red ([2]; 8° C., 25 days) | Stability of Cannabinoids in AB Red ([2]; 8° C., 30 days) | Stability of Cannabinoids in AB Red ([2]; 21-25° C., 0 days) | Stability of Cannabinoids in AB Red ([2]; 21-25° C., 11 days) | Stability of Cannabinoids in AB Red ([2]; 21-25° C., 17 days) | Stability of Cannabinoids in AB Red ([2]; 21-25° C., 22 days) | Stability of Cannabinoids in AB Red ([2]; 21-25° C., 23 days)
2.49 mg/g powder: Stability in Powder Concentrate (content by LCMSMS) ([1]; day 8) | Stability in Powder Concentrate (content by LCMSMS) ([1]; day 9) | Stability in Powder Concentrate (content by LCMSMS) ([1]; day 15) | Stability in Powder Concentrate (content by LCMSMS) ([1]; day 90) | Stability in Powder Concentrate (content by LCMSMS) ([1]; day 330)
2.65 mg/g powder: Stability in Powder Concentrate (content by LCMSMS) ([1]; day 12) | Stability in Powder Concentrate (content by LCMSMS) ([1]; day 23) | Stability in Powder Concentrate (content by LCMSMS) ([1]; day 480)
2.59 mg/g powder: Stability in Powder Concentrate (content by LCMSMS) ([1]; day 180)
no significant degradation: Chemical stability over the entire period (result in words) ([1]; powder concentrate, room temperature (21-25° C.), 570 days)
2.47 mg/g powder: Stability in Powder Concentrate (content by LCMSMS) ([1]; day 29) | Stability in Powder Concentrate (content by LCMSMS) ([1]; day 270) | Stability in Powder Concentrate (content by LCMSMS) ([1]; day 540)
2.46 mg/g powder: Stability in Powder Concentrate (content by LCMSMS) ([1]; day 2) | Stability in Powder Concentrate (content by LCMSMS) ([1]; day 22)
2.57 mg/g powder: Stability in Powder Concentrate (content by LCMSMS) ([1]; day 300)
2.60 mg/g powder: Stability in Powder Concentrate (content by LCMSMS) ([1]; day 10) | Stability in Powder Concentrate (content by LCMSMS) ([1]; day 24)
12.2 µg/mL: Stability of Cannabinoids in AB Red ([2]; 8° C., 480 days) | Stability of Cannabinoids in AB Red ([2]; 21-25° C., 60 days) | Stability of Cannabinoids in AB Red ([2]; 21-25° C., 420 days) | Stability of Cannabinoids in AB Red ([2]; 21-25° C., 450 days) | Stability of Cannabinoids in AB Red ([2]; 21-25° C., 540 days)
12.3 µg/mL: Stability of Cannabinoids in AB Red ([2]; 8° C., 210 days) | Stability of Cannabinoids in AB Red ([2]; 21-25° C., 510 days)
12.4 µg/mL: Stability of Cannabinoids in AB Red ([2]; 8° C., 120 days) | Stability of Cannabinoids in AB Red ([2]; 8° C., 240 days) | Stability of Cannabinoids in AB Red ([2]; 8° C., 300 days) | Stability of Cannabinoids in AB Red ([2]; 8° C., 390 days) | Stability of Cannabinoids in AB Red ([2]; 8° C., 420 days) | Stability of Cannabinoids in AB Red ([2]; 8° C., 450 days) | Stability of Cannabinoids in AB Red ([2]; 21-25° C., 5 days) | Stability of Cannabinoids in AB Red ([2]; 21-25° C., 16 days) | Stability of Cannabinoids in AB Red ([2]; 21-25° C., 26 days) | Stability of Cannabinoids in AB Red ([2]; 21-25° C., 30 days) | Stability of Cannabinoids in AB Red ([2]; 21-25° C., 120 days) | Stability of Cannabinoids in AB Red ([2]; 21-25° C., 150 days) | Stability of Cannabinoids in AB Red ([2]; 21-25° C., 210 days) | Stability of Cannabinoids in AB Red ([2]; 21-25° C., 300 days)
12.8 µg/mL: Stability of Cannabinoids in AB Red ([2]; 8° C., 10 days) | Stability of Cannabinoids in AB Red ([2]; 8° C., 11 days) | Stability of Cannabinoids in AB Red ([2]; 8° C., 18 days) | Stability of Cannabinoids in AB Red ([2]; 8° C., 150 days) | Stability of Cannabinoids in AB Red ([2]; 21-25° C., 9 days) | Stability of Cannabinoids in AB Red ([2]; 21-25° C., 18 days) | Stability of Cannabinoids in AB Red ([2]; 21-25° C., 19 days) | Stability of Cannabinoids in AB Red ([2]; 21-25° C., 90 days) | Stability of Cannabinoids in AB Red ([2]; 21-25° C., 180 days)
